The source of these data is US20220380383A1, “NEUROPROTECTIVE PDI MODULATING SMALL MOLECULES AND METHODS OF USE THEREOF” (THE TRUSTEES OF COLUMBIA UNIVERSITY IN THE CITY OF NEW YORK, priority 2018, published 2022).

SMILES strings stand for the structures. In brackets after ≈: the same amount, converted by molar mass. Several values for one entry are separate records, joined by “and”; a condition that tells them apart may be missing. Equal entries are not always repeated. Entries after “also recorded” stand apart in the source; their conditions may differ. Where two headings read alike, the source gives them in different places.

The target in data set [1] is T1, human catalytic PDI A1 a domain (PDIa) (Homo sapiens, UniProt P07237).
T1 construct: made in house; host or cells: Escherichia coli BL21-Gold (DE3)
T1 sequence (P07237 18-134): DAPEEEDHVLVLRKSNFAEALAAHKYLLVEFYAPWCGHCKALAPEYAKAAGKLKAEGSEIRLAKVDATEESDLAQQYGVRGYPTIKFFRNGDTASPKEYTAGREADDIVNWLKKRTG
Put plainly: Isothermal titration calorimetry (ITC) binding to PDIa. Background: Isothermal titration calorimetry measures the heat released or taken up as one component is titrated into another.

Another data set concerns PC12 mHTTQ103 cells. Description: Rescue of PC12 cells from mHTTQ103-induced cell death. It counts as cell-based, rat. Particulars: for EC50: Rattus norvegicus, PC-12.
Data set [2] has as its system striatal medium spiny neurons in brain slice explants co-transfected with YFP and mHTT. Put plainly: HD brain slice assay. In kind it is cell-based, rat. The procedure:
Resonances with large chemical shifts are labeled in green. Rat coronal brain slice explants co-transfected with YFP and Tau-4R (FIG. 16B) or striatal brain slice explants co-transfected with YFP and mHTT (FIG. 16C) were treated with LC-43 or DMSO carrier-only for 3 days. The respective regions of each brain slice were then scored for numbers of healthy (FIG. 16B) pyramidal or (FIG. 16C) medium spiny neurons remaining. Data are normalized to the negative control condition set to 100% and plotted as means±SEM. In FIG. 16D, The confocal images shown are maximal z-stacks of 0.5 μm steps (˜20 images per stack). (Bottom) Reduction of neuronal redox state by LC-43. Left, Primary neurons were co-transfected with mCherry (to positively identify transfected neurons) and the genetically encoded ratiometric redox reporter roGFP2. Four days later, the culture medium was changed into an identical formulation except without conventional antioxidant additives. […]
Brain slice explants were prepared and transfected as previously described (Reinhart et al., 2011). […] Striatal medium spiny neurons (MSNs) expressing YFP were visualized under fluorescence microscopy and identified based on their location within brain slices and their characteristic morphology.

The nature of data set [3]: Solubility (stock solvent).
The target in a further data set is Adrenergic α2A (Homo sapiens, UniProt P08913). Description: Off-target panel, Adrenergic α2A. It counts as binding. Particulars: Conc. 3 μM.
A further data set has as its target Adrenergic β1 (Homo sapiens, UniProt P08588). Description: Off-target panel, Adrenergic β1. In kind it is binding. Particulars: Conc. 3 μM.
A further data set concerns the target Dopamine D2S (Homo sapiens, UniProt P14416). Description: Off-target panel, Dopamine D2S. Particulars: Conc. 3 μM. It counts as binding.
Another data set concerns the target Histamine H1 (Homo sapiens, UniProt P35367). Put plainly: Off-target panel, Histamine H1. In kind it is binding. Particulars: Conc. 3 μM.
A further data set has as its target Prostanoid EP4 (Homo sapiens, UniProt P35408). Description: Off-target panel, Prostanoid EP4. Particulars: Conc. 3 μM. In kind it is binding.
Data set [4] deals with Transporter, Norepinephrine (NET) (Homo sapiens, UniProt P23975). Put plainly: Off-target panel, Norepinephrine transporter. In kind it is binding. Particulars: Conc. 3 μM.
Chain of Transporter, Norepinephrine (NET) (P23975 whole entry): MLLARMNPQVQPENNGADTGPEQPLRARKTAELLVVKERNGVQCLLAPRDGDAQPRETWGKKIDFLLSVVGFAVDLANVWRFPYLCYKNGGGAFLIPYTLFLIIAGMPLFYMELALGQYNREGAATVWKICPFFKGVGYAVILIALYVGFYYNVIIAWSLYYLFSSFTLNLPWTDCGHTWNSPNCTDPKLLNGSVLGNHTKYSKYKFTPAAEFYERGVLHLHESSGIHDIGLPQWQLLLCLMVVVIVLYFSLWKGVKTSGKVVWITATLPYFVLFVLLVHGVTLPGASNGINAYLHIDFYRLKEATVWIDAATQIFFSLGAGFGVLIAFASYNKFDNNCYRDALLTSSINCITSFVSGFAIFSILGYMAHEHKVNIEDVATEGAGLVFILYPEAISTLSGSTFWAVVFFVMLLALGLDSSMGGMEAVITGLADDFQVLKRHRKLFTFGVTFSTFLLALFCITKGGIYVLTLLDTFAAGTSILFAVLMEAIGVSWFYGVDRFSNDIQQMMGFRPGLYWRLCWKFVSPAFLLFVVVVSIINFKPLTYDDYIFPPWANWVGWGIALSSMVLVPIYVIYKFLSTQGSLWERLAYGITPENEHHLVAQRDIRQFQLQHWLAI
The target of data set [5] is T2, CHRM2 (muscarinic acetylcholine receptor M2) (Homo sapiens, UniProt P08172).
T2 construct: CEREP (CRO that ran the panel)
T2 sequence (P08172 whole entry): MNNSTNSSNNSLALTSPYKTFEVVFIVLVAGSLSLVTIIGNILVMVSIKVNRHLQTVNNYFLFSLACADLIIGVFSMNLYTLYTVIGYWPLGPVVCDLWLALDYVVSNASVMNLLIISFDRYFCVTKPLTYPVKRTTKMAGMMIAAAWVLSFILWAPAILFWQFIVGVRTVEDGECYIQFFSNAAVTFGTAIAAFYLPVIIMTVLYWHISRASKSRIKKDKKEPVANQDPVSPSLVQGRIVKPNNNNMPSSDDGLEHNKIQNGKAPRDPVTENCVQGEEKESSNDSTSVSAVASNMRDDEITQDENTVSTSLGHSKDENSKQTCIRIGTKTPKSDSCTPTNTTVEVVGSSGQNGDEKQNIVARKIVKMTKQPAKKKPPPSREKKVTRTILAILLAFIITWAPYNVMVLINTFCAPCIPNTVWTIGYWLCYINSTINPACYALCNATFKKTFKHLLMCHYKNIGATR
Put plainly: Safety47 panel GPCR CHRM2. In kind it is cell-based. The source says: (§1) LOC14 was also submitted for testing in CEREP's Safety47 panel. CEREP is a CRO specializing in preclinical research, discovery and development of new pharmaceutical drugs.

Another data set has as its target T3, AR (Homo sapiens, UniProt P10275).
T3 construct: CEREP (CRO panel)
Put plainly: Safety47 panel nuclear hormone receptor AR. It counts as cell-based. Particulars: 3 μM.
Text: as §1

The target in a further data set is T4, DAT (Homo sapiens, UniProt Q01959).
T4 construct: CEREP (CRO panel)
Description: Safety47 panel transporter DAT. In kind it is cell-based. Particulars: Blocker mode; 3 μM.
Text: as §1

In a further data set the target is T5, SERT (Homo sapiens, UniProt P31645).
T5 construct: CEREP (CRO panel)
Description: Safety47 panel transporter SERT. It counts as cell-based. Particulars: Blocker mode; 3 μM.
Text: as §1

In another data set the test system is GABAA. Description: Safety47 panel ion channel GABAA. In kind it is cell-based, human. Particulars: 3 μM.
Text: as §1

The target of the next data set is T6, hERG (Homo sapiens, UniProt Q12809).
T6 construct: CEREP (CRO panel)
Put plainly: Safety47 panel ion channel hERG. In kind it is cell-based. Particulars: Blocker mode; 3 μM.
Text: as §1
On the technique in general: The hERG channel carries a current that helps repolarise heart muscle cells.

A further data set has as its target T7, nAChR(a4/b2) (Homo sapiens, UniProt P17787+P43681).
T7 construct: CEREP (CRO panel)
Put plainly: Safety47 panel ion channel nAChR(a4/b2). It counts as cell-based. Particulars: 3 μM.
Text: as §1

The target in another data set is T8, COX1 (Homo sapiens, UniProt P23219).
T8 construct: CEREP (CRO panel)
Description: Safety47 panel non-kinase enzyme COX1. In kind it is biochemical. Particulars: Inhibitor mode; 3 μM.
Text: as §1

Another data set concerns the target Potassium Channel hERG (Homo sapiens, UniProt Q12809).
The mark [6] stands for this setting: Tables 5-13, PC12 cells, read-out: EC50.
Where [7] appears, read: rescue from mHTTQ103 induced cell death.
The mark [8] stands for this setting: Tables 5-13, solvent not given (DMSO in Table 1).

T7 sequence (P43681 29-627 limits assumed): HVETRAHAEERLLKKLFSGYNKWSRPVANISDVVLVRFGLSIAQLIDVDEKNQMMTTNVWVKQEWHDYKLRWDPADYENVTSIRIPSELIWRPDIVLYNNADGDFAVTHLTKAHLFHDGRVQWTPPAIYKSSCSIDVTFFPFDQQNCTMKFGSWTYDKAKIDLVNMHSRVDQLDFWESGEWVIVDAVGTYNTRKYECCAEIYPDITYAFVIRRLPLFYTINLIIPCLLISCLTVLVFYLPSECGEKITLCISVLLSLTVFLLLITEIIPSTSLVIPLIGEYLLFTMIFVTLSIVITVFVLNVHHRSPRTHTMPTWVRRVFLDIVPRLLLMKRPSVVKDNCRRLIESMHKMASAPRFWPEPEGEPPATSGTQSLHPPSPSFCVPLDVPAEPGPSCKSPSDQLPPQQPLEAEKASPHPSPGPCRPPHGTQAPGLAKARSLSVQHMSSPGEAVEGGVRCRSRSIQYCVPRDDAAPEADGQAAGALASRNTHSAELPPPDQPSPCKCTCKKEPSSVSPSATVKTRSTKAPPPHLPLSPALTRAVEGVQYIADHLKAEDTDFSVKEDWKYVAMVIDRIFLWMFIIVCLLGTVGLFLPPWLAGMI
T7 sequence (P17787 26-502): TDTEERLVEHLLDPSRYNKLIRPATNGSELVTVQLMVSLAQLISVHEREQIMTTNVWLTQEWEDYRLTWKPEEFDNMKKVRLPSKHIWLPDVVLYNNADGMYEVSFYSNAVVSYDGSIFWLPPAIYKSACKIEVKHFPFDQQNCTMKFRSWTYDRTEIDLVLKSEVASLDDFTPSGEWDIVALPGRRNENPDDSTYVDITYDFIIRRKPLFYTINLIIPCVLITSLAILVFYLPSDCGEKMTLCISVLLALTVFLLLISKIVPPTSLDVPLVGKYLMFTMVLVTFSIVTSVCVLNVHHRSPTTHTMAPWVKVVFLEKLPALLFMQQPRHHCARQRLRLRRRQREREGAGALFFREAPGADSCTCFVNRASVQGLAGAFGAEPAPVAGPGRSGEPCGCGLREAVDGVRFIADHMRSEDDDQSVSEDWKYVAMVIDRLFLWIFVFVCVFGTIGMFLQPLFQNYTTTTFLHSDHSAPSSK
T3 sequence (P10275 whole entry): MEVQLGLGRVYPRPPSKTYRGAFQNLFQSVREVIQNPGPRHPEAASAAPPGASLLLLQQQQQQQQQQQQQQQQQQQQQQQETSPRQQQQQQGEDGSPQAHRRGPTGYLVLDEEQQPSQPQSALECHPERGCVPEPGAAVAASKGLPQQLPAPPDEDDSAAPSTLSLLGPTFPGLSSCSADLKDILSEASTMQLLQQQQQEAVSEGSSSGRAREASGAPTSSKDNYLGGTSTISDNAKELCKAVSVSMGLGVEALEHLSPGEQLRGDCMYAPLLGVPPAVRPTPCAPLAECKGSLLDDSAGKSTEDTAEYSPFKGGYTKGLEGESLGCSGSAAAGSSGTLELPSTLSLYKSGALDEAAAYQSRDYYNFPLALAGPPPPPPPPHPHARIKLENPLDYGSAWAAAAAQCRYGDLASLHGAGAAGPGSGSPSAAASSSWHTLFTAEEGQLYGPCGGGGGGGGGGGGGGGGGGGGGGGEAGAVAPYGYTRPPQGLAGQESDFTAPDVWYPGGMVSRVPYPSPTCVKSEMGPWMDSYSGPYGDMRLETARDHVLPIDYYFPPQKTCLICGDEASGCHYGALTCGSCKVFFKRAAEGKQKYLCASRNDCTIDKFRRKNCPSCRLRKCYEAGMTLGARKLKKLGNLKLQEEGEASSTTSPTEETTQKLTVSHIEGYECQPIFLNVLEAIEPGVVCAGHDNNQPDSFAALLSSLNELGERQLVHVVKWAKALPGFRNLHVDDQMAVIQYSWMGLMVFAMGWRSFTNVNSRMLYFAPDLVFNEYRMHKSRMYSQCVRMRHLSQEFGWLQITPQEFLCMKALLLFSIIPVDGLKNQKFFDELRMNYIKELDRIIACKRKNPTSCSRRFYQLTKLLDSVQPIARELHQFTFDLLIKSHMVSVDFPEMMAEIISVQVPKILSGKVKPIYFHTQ
Chain of Histamine H1 (P35367 whole entry): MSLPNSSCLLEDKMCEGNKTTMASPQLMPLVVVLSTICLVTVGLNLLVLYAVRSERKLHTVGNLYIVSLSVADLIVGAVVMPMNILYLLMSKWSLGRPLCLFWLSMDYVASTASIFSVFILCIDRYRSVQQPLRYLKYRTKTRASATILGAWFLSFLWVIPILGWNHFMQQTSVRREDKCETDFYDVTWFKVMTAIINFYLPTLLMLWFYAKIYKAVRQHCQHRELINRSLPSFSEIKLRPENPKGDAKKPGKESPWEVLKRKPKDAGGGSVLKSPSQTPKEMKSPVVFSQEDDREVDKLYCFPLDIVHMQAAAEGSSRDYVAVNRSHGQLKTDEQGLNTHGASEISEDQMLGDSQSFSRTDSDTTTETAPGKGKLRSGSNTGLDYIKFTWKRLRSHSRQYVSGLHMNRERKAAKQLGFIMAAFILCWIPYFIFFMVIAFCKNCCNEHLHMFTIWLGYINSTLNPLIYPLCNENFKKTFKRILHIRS
Chain of Dopamine D2S (P14416 1-414 isoform P14416-2): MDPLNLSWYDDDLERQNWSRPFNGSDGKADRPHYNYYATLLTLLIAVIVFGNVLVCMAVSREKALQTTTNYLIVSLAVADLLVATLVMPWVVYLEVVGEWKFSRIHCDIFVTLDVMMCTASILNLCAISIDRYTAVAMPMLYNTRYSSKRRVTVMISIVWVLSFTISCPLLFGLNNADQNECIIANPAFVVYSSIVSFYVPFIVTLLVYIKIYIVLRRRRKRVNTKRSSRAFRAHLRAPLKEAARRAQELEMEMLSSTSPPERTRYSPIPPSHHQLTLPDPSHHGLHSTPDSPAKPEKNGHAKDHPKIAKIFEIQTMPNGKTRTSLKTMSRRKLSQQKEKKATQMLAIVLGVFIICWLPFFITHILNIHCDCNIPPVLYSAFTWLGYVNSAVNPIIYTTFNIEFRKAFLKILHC
Chain of Prostanoid EP4 (P35408 whole entry): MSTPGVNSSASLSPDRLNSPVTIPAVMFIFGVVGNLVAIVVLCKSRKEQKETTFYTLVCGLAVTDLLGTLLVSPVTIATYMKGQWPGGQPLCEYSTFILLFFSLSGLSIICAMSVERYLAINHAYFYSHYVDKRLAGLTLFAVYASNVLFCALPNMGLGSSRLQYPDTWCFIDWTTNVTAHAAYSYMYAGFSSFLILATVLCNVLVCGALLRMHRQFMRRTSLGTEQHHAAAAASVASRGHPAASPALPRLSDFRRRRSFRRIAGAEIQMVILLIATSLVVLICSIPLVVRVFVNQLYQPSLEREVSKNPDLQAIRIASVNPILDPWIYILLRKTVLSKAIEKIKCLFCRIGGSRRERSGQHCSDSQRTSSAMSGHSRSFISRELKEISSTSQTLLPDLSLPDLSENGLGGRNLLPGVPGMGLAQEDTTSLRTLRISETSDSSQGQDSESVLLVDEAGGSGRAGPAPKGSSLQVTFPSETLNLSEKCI

With `O=C(C1CC1)N1CCN(Cn2sc3c(F)cccc3c2=O)CC1` [LC-43], in [1], the “binding to PDI by ITC” value is reported as “showed no binding to the protein by ITC”. The “ITC KD” value in [1] (N/A = not active) is “KD = N/A irreversible or not active”. For the same molecule, the EC50 (as a rule, the concentration giving half of the maximal effect) with PC12 mHTTQ103 cells (setting [6]) stood at 7410 nM. In the data set with PC12 mHTTQ103 cells (Tables 5-13, PC12 cells), the “Max Viability (%)” value is on record as 56%. For the same molecule, the “PC12 cells Max % Viability” value in the data set on PC12 mHTTQ103 cells (setting [7]) is reported as 56.48%. Further, the “rescue of medium spiny neurons in HD brain slice” value in data set [2] (3 days treatment) is recorded as “dose-dependent rescue; also recorded: robust neuroprotection”. Besides, the “concentration that provided peak rescue” value in data set [2] (HD brain slice assay) turned out to be 10 µM. For the same molecule, the Solubility in [3] was found to be 100 mM in DMSO; in data set [3] (setting [8]), 100 mM (≈ 33.5 mg/mL).
Regarding `O=C(C1CC1)N1CCN(Cn2sc3ccccc3c2=O)CC1` [LOC14], the EC50 in the data set on PC12 mHTTQ103 cells (setting [6]) stood at 352 nM; in the data set with PC12 mHTTQ103 cells (rescue from mHTTQ103 induced cell death, read-out: PC12 cells EC50) it was 352 nM. In addition, the “Max Viability (%)” value with PC12 mHTTQ103 cells (Tables 5-13, PC12 cells) is listed as 66%. This molecule had an EC100 with PC12 mHTTQ103 cells (protection from mHTT toxicity, FIG. 13A) of 3.1 µM. For the same molecule, the “PC12 cells Max % Viability” value with PC12 mHTTQ103 cells (setting [7]) is 66.25%. The inhibition – broadly, the change of the read-out against control, counted positive when it falls – at 3 µM against Adrenergic α2A came out at 7%; against Adrenergic β1 it was 7%; against Dopamine D2S, 0%; on Histamine H1, 27%; against Prostanoid EP4, 32%; in [4] it was 24%. Further, in data set [5], the “activity (response) against muscarinic acetylcholine receptor M2” value was < 95% and 70%. Further, the Average was found to be 0.0 at AR (Agonist mode); 5.4 at AR (Antagonist mode); 0.0 at DAT; 5.0 at SERT; 5.1 in the data set with GABAA (Blocker mode); 0.0 in the data set on GABAA (Opener mode). In addition, the Average on hERG worked out at 5.9; on nAChR(a4/b2) (Blocker mode) it was 10.1; at nAChR(a4/b2) (Opener mode), 0.0; on COX1, 1.4. In addition, the “binding to the hERG receptor” value on Potassium Channel hERG is recorded as “does not bind to the hERG receptor”. The results for the Solubility in data set [3] and in [3] (setting [8]) were 100 mM in DMSO and 100 mM (≈ 31.7 mg/mL), respectively.
